Test results reported in PubChem BioAssay (NCI).
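Test compounds were applied to cells in 96-well plates for 48 hours at 5 doses. The concentration for 50% growth inhibition is given as GI50. TGI is the concentration that stops growth completely.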

Key:
Assay in all cases: NCI anticancer screen, dose series, 48 h
[1] = tested on: M14 melanoma
[2] = tested on: UACC-62 melanoma
[3] = tested on: OVCAR-4 ovarian
[4] = tested on: CCRF-CEM leukemia
[5] = tested on: ACHN renal
[6] = tested on: SN12C renal
[7] = tested on: MDA-MB-435
[8] = tested on: U251 CNS
[9] = tested on: KM12 colon
[10] = tested on: SNB-75 CNS
[11] = tested on: BT-549 breast
[12] = tested on: LOX IMVI melanoma
[13] = tested on: K-562 leukemia
[14] = tested on: HCT-15 colon
[15] = tested on: OVCAR-8 ovarian
[16] = tested on: SW-620 colon
[17] = tested on: MCF7 breast
[18] = tested on: HCT-116 colon
[19] = tested on: SK-MEL-5 melanoma
[20] = tested on: SK-MEL-28 melanoma
[21] = tested on: COLO 205 colon
[22] = tested on: NCI-H226 lung
[23] = tested on: RPMI-8226 leukemia
[24] = tested on: MDA-MB-231 breast
[25] = tested on: SF-295 CNS
[26] = tested on: PC-3 prostate
[27] = tested on: UO-31 renal
[28] = tested on: NCI-H460 lung
[29] = tested on: 786-0 renal
[30] = tested on: T-47D breast
[31] = tested on: NCI/ADR-RES ovarian
[32] = tested on: SK-OV-3 ovarian
[33] = tested on: TK-10 renal
[34] = tested on: SNB-19 CNS
[35] = tested on: HT29 colon
[36] = tested on: OVCAR-5 ovarian
[37] = tested on: DU-145 prostate
[38] = tested on: NCI-H23 lung
[39] = tested on: IGROV1 ovarian
[40] = tested on: HS 578T breast
[41] = tested on: EKVX NSCLC
[42] = tested on: NCI-H522 lung
[43] = tested on: UACC-257 melanoma
[44] = tested on: SF-268 CNS
[45] = tested on: CAKI-1 renal
[46] = tested on: HOP-62 NSCLC
[47] = tested on: A549 NSCLC
[48] = tested on: SK-MEL-2 melanoma
[49] = tested on: MOLT-4 leukemia
[50] = tested on: HOP-92 NSCLC
[51] = tested on: MALME-3M melanoma
[52] = tested on: HL-60(TB) leukemia
[53] = tested on: SR leukemia
[54] = tested on: RXF 393 renal
[55] = tested on: SF-539 CNS
[56] = tested on: A498 renal
[57] = tested on: OVCAR-3 ovarian
[58] = tested on: HCC-2998 colon

## O=C1C=Cc2c1ccc1ccccc21
[1]
  GI50: 18.9 µM
  TGI: 60.3 µM
[2]
  GI50: 9.66 µM
  TGI: 70.9 µM
[3]
  GI50: 75.2 µM
  TGI: > 100 µM
[4]
  GI50: 14.8 µM
  TGI: 43.9 µM
[5]
  GI50: 17.1 µM
  TGI: 58.7 µM
[6]
  GI50: 6.55 µM
  TGI: 35.7 µM
[7]
  GI50: 14.9 µM
  TGI: 42.9 µM
[8]
  GI50: 24.5 µM
  TGI: > 100 µM
[9]
  GI50: 24.5 µM
  TGI: 77.5 µM
[10]
  GI50: 35.4 µM
  TGI: > 100 µM
[11]
  GI50: 31.4 µM
  TGI: 89.9 µM
[12]
  GI50: 22 µM
  TGI: 61.8 µM
[13]
  GI50: 28.7 µM
  TGI: > 100 µM
[14]
  GI50: 24.1 µM
  TGI: > 100 µM
[15]
  GI50: 25.3 µM
  TGI: 73.6 µM
[16]
  GI50: 44.3 µM
  TGI: > 100 µM
[17]
  GI50: 18.6 µM
  TGI: > 100 µM
[18]
  GI50: 27 µM
  TGI: > 100 µM
[19]
  GI50: 21.1 µM
  TGI: 71 µM
[20]
  GI50: 80.4 µM
  TGI: > 100 µM
[21]
  GI50: 30.9 µM
  TGI: > 100 µM
[22]
  GI50: 16.6 µM
  TGI: > 100 µM
[23]
  GI50: 4.2 µM
  TGI: 21.9 µM
[24]
  GI50: 15 µM
  TGI: 53.6 µM
[25]
  GI50: 20.8 µM
  TGI: 63.6 µM
[26]
  GI50: 13 µM
  TGI: 85.2 µM
[27]
  GI50: 26.7 µM
  TGI: > 100 µM
[28]
  GI50: 35.7 µM
  TGI: > 100 µM
[29]
  GI50: 21.3 µM
  TGI: 65.2 µM
[30]
  GI50: 37.9 µM
  TGI: > 100 µM
[31]
  GI50: 31.9 µM
  TGI: > 100 µM
[32]
  GI50: 30.2 µM
  TGI: > 100 µM
[33]
  GI50: 15.9 µM
  TGI: 54.9 µM
[34]
  GI50: 33 µM
  TGI: > 100 µM
[35]
  GI50: 58.8 µM
  TGI: > 100 µM
[36]
  GI50: 16.1 µM
  TGI: 67.4 µM
[37]
  GI50: 48.8 µM
  TGI: > 100 µM
[38]
  GI50: 27.4 µM
  TGI: 85.2 µM
[39]
  GI50: 25.5 µM
  TGI: > 100 µM
[40]
  GI50: 18.4 µM
  TGI: 54.6 µM
[41]
  GI50: 12.6 µM
  TGI: 61.3 µM
[42]
  GI50: 27.6 µM
  TGI: > 100 µM
[43]
  GI50: 50.2 µM
  TGI: > 100 µM
[44]
  GI50: 28.3 µM
  TGI: > 100 µM
[45]
  GI50: 11.1 µM
  TGI: 33 µM
[46]
  GI50: 14.3 µM
  TGI: 50 µM
[47]
  GI50: 18.3 µM
  TGI: 65.8 µM
[48]
  GI50: 72.9 µM
  TGI: > 100 µM

## COc1ccc(/C=C2\SC(=Nc3ccccc3)NC2=O)cc1
[2]
  GI50: 4.79 µM
  TGI: > 100 µM
[3]
  GI50: 10 µM
  TGI: 25.7 µM
[4]
  GI50: 5.4 µM
  TGI: > 100 µM
[49]
  GI50: 4.77 µM
  TGI: > 100 µM
[5]
  GI50: 5.53 µM
  TGI: 48.5 µM
[6]
  GI50: 9.1 µM
  TGI: > 100 µM
[7]
  GI50: 2.14 µM
  TGI: 5.34 µM
[8]
  GI50: 3.98 µM
  TGI: 16.3 µM
[9]
  GI50: 4.37 µM
  TGI: 22 µM
[10]
  GI50: 2.42 µM
  TGI: 10.9 µM
[11]
  GI50: 45.7 µM
  TGI: > 100 µM
[12]
  GI50: 5.5 µM
  TGI: 19.6 µM
[13]
  GI50: 2.31 µM
  TGI: > 100 µM
[14]
  GI50: 2.73 µM
  TGI: > 100 µM
[15]
  GI50: 6.62 µM
  TGI: 31.7 µM
[50]
  GI50: 7.64 µM
  TGI: 53.5 µM
[16]
  GI50: 3.38 µM
  TGI: 24.4 µM
[17]
  GI50: 2.68 µM
  TGI: 42.1 µM
[51]
  GI50: 19 µM
  TGI: 99.8 µM
[18]
  GI50: 3.4 µM
  TGI: 12.9 µM
[19]
  GI50: 7.63 µM
  TGI: 30.5 µM
[20]
  GI50: 8.06 µM
  TGI: 44.8 µM
[21]
  GI50: 4.68 µM
  TGI: 27.9 µM
[52]
  GI50: 3.53 µM
  TGI: > 100 µM
[22]
  GI50: 13.8 µM
  TGI: > 100 µM
[23]
  GI50: 5.38 µM
  TGI: > 100 µM
[53]
  GI50: 2.5 µM
  TGI: 30.7 µM
[24]
  GI50: 4.58 µM
  TGI: 38.7 µM
[25]
  GI50: 4.6 µM
  TGI: > 100 µM
[26]
  GI50: 7.69 µM
  TGI: > 100 µM
[27]
  GI50: 6.97 µM
  TGI: > 100 µM
[28]
  GI50: 3.36 µM
  TGI: 13.4 µM
[29]
  GI50: 8.25 µM
  TGI: 30.1 µM
[30]
  GI50: 6.46 µM
  TGI: > 100 µM
[31]
  GI50: 4.61 µM
  TGI: > 100 µM
[32]
  GI50: 12.6 µM
  TGI: 46.8 µM
[33]
  GI50: 41.4 µM
  TGI: > 100 µM
[34]
  GI50: 6.34 µM
  TGI: 83.7 µM
[35]
  GI50: 4.38 µM
  TGI: 19.5 µM
[36]
  GI50: 12.5 µM
  TGI: > 100 µM
[54]
  GI50: 4.68 µM
  TGI: 26.8 µM
[55]
  GI50: 3.6 µM
  TGI: 15.1 µM
[37]
  GI50: 11.4 µM
  TGI: 71.5 µM
[38]
  GI50: 8.6 µM
  TGI: 80.5 µM
[39]
  GI50: 13.6 µM
  TGI: > 100 µM
[56]
  GI50: 1.08 µM
  TGI: 7.34 µM
[40]
  GI50: 4.32 µM
  TGI: 40.7 µM
[57]
  GI50: 3.67 µM
  TGI: 11.2 µM
[42]
  GI50: 4.54 µM
  TGI: 24.9 µM
[43]
  GI50: 52.2 µM
  TGI: > 100 µM
[44]
  GI50: 8.18 µM
  TGI: 88.3 µM
[45]
  GI50: 3.98 µM
  TGI: > 100 µM
[46]
  GI50: 7.06 µM
  TGI: 26.1 µM
[47]
  GI50: 4.74 µM
  TGI: 26.7 µM
[58]
  GI50: 10 µM
  TGI: > 100 µM
[48]
  GI50: 29.3 µM
  TGI: 82.4 µM
